{"source": "patent US20040248871A1", "about": "“Use of lysyl oxidase inhibitors for cell culture and tissue engineering” (priority 2001, published 2004)", "key": {"[1]": {"tested_on": "deep chondrocytes of the cotyloid ligament", "test": "Human cotyloid cartilage chondrocytes in 2D culture on plastic", "assay_type": "cell-based", "conditions": "hyaluronidase in extraction medium, two weeks, serum", "description": "b) The cultures of normal human chondrocytes originate from cartilages taken during hip prosthesis or ligamentoplasty surgery, then subjected to enzymatic digestion. These cartilage biopsies are considered as res nullus.\nThe chondrocytes extracted from the cotyloid ligament have been used for the two-dimensional culture on plastic in the presence of BAPN: the cultures obtained after enzymatic digestion of the cartilages in the presence or absence of hyaluronidase were compared (FIGS. 4 and 5).\nThe 24-hour radio-labellings with the 14C proline were carried out on the 2nd, 7th and 14th day of culture in the presence of serum and βAPN (day 2, day 7 and day 14 respectively). The pepsinated extracts of culture medium and cell lawn were subjected to electrophoresis then fluorography.\nThe superficial areas (even numbers) and deep areas (odd numbers) of the cotyloid cartilage were separated before being subjected to enzymatic digestion in the presence or absence of hyaluronidase."}, "[2]": {"tested_on": "reconstructed skin (fibroblasts and keratinocytes)", "test": "Histology, immunohistology and in situ hybridization of reconstructed skins", "assay_type": "cell-based, human", "description": "The method allowing the formation of the reconstructed skin is that described in the French Patent 87-08252 of the 15th Jun. 1987.\n(§1) The support of the reconstructed skin model is constituted by a dermal substrate (DS) with a base of collagen-glycosaminoglycan cross-linked by chitosan according to the technique published by Duplan-Perrat et al (J Invest Dermatol 2000 114:365). Fibroblasts are inoculated the inside of the DS in order to obtain an equivalent dermis. The reconstituted skin (RS) is obtained by inoculating the keratinocytes after 15 days (day 15) of culture in equivalent dermis. The dermal fibroblasts are obtained from explants of human prepuces after dermal-epidermal separation and cultured in monolayer in DMEM medium (Sigma) supplemented by 10% fœtal calf serum, 4 mM L-glutamine, EGF (Austral Biologic) at 10 ng/ml, penicillin at 100 UI/ml, gentamicin at 100 μg/ml and amphotericin B at 1 μg/ml. The keratinocytes are from a human skin biopsy sample after dermal-epidermal separation by trypsination. The cells are inoculated nutritive layers (irradiated fibroblasts) and cultured in DMEM and HAM F12 at 30% supplemented with fœetal calf serum at 10%, EGF at 10 ng/ml, hydrocortisone at 1.6 ng/ml, umulin at 0.12 UI/ml, choleratoxin at 0.1 nM, triiodothyronine at 0.2 μM, adenine at 24 μg/ml, 4 mM L-Glutamine, penicillin at 100 UI/ml, gentamicin at 100 μg/ml and amphotericin B at 1 μg/ml.\nA mixture with a base of bovine collagen of type I and III (72%), glycosaminoglycan (8%) cross-linked by chitosan (20%) is poured into 6-well plates. The dermal substrates thus obtained are then frozen at −80° C. and lyophilized. The fibroblasts are inoculated in the dermal substrate, rehydrated and sterilized at a rate of 250,000 cells per cm^2. Keratinocytes are inoculated after 15 days (day 15) at a density of 200,000 to 250,000 cells/cm^2. The reconstructed skins are cultured for 8 days in immersion, in the medium described previously supplemented with 50 μg/ml of vitamin C. […]"}, "[3]": {"tested_on": "chondrocytes, fibroblasts, keratinocytes", "test": "Toxicity and multiplication of the cells in culture at the standard concentration", "assay_type": "cell-based", "conditions": "50 μg/ml", "procedure": "βAPN (50 μg/ml) is added immediately upon inoculation, to the culture medium which is renewed every 2 days and applied to the cultures of chondrocytes as well as to those of fibroblasts then of keratinocytes during the formation of the reconstructed skin."}, "[4]": {"tested_on": "LOX, LOXL1 expression by chondrocytes", "test": "Immunodecoration with anti LOX, LOXL1 antibodies of extracts of chondrocyte cell lawns and culture medium", "assay_type": "cell-based, chicken", "conditions": "6th or 14th day of culture", "procedure": "The Lysyl oxidase activity was assayed with 300,000 dpm of labelled elastin on the Lysine, substrate of the enzyme (Shackelton and Hulmes Anal. Biochem. (1990) 185: 359-362). The determination of the presence of Lysyl oxidases in the cultures of chondrocytes is carried out according to the standard methods of immunodecoration of the supports onto which the bands separated from the proteins extracted from the corresponding culture media or from the cell lawns have been transferred.\nThe day before the samples are taken, the cell lawn is washed three times with medium without serum. The medium is then changed for 24 hours with complete medium without serum.\nOn the 6th or 14th day of culture the media are sampled and precipitated in a standard fashion with TCA 10% final/4° C./[…]. The centrifugation pellets are rinsed with acetone then solubilized in a 50 μl electrophoresis buffer. The rinsed cell lawns are lysed 2 hours/4° C. (300 μl/P35) in the mixture 8M urea, 0.5% Nonidet, 16 mM disodium phosphate pH 8 and protease inhibitors. […]\nAfter separation by SDS PAGE and transfer by Western Blot, the protein bands are analyzed by immunodecoration using polyclonal anti-LOX and anti-LOXL1 antibodies from rabbits, then a second anti-rabbit antibody marked with alkaline phosphatase before development with the reagent NBT/BCIP (Roche Diagnostic GmBH, Mannheim, Germany)."}, "keratinocytes": {"tested_on": "keratinocytes", "test": "Keratinocytes cultured in monolayer: cell count and MTT viability test", "assay_type": "cell-based, human", "description": "as §1\nIn fact, the number of these cells is reduced by approximately 50% compared to the control when they are cultured in the presence of 600 μg/ml of βAPN. […] The results of the MTT viability test confirm those of the cell count. […] It must be emphasized that βAPN at 200 μg/ml can optionally cause an increase in cell activity (proliferation and viability) on the fibroblasts inoculated at a low density, and on the fibroblasts and the keratinocytes inoculated at a high density."}}}
{"smiles": "N#CCCN", "note": "[βAPN, β-aminopropionitrile]", "values": [{"measurement": "preservation of morphology and phenotype (matrix of cartilaginous type, without collagen I)", "setting": "[1]", "result": "preserving their morphology and their phenotype"}, {"measurement": "histology of the reconstructed skins", "setting": "[2]; 50 μg/ml or 200 μg/ml", "result": "does not seem to be fundamentally changed"}, {"measurement": "detection of the LOX and LOXL genes by in situ hybridization", "setting": "[2]; 50 μg/ml, dermis and epidermis", "result": "slight increase"}, {"measurement": "synthesis of extracellular matrix / colonization of the sponge by the fibroblasts", "setting": "[2]; dermis of reconstructed skin", "result": "increased synthesis of ECM"}, {"measurement": "toxicity for the cells", "setting": "[3]", "result": "not toxic"}, {"measurement": "expression of Lysyl oxidase molecules (LOX, LOXL1)", "setting": "[4]", "result": "does not modify the expression of Lysyl oxidase molecules"}, {"measurement": "reduction of proliferation of the keratinocytes", "setting": "keratinocytes; 200 μg/ml", "result": "approximately 10%"}, {"measurement": "effect on the viability and the multiplication", "setting": "keratinocytes; 200 μg/ml, isolated cultures", "result": "little effect"}, {"measurement": "reduction of the number of cells compared to the control", "setting": "keratinocytes; 600 μg/ml", "result": "approximately 50%"}, {"measurement": "concentration with inhibiting effect on proliferation", "setting": "keratinocytes; cell count and MTT", "result": "greater than 500 μg/ml"}, {"measurement": "toxic effect on cells at confluence", "setting": "keratinocytes; up to 800 μg/ml", "result": "no toxic effect"}]}
